Measurements reported in patent US8268849B2, “Multifunctional Antioxidants and methods of use thereof” (priority 2007, dated 2012).
“Also recorded” adds a separate entry of the source.

Legend:
[1] = Gino et al. (2001); cited from earlier work
[2] = Gino et al. (2001); cited from earlier work; remark: listed apart in the source
[3] = system: diabetic cataract formation; test: Cataract formation in diabetic rats; type: in vivo; details: streptozotocin diabetic rats
Description: Diabetes was induced in 100 g Sprague Dawley rats with streptozotocin injection (75 mg/kg) and all rats with blood sugar levels >300 mg/dL were divided into 4 groups of 8 rats each. One group received only standard rat chow (untreated diabetic) while each of the other groups received chow containing either 0.0125% ARI Al1576, 0.025% JHX-4 or 0.025% JHX-8. Lens changes were monitored by at 3-5 day intervals by slit lamp following tropicamide mydriasis. As summarized in FIGS. 8A-8C, vacuole formation began by 14 days in the untreated diabetic group with cortical opacities observed by 29 days and mature cataracts by 44 days. […] In the two antioxidant treated groups, vacuole formation was delayed by 19 and 11 days by JHX-4 and JHX-8, respectively, and cortical cataracts by 9 and 3 days, respectively. At the end of the study (47 days) all rats were equally diabetic with HbA1C levels >11.9%. All eyes were enucleated and lens sorbitol levels were measured as previously described (Kador et al. (2007) J. Ocul. Pharmacol. Ther., 23:116-23). […] Tissue levels of JHX-4 and -8 in the lens, neural retina and brain were determined after 47 days of feeding as described above (FIG. 10). […] Overall drug levels in both the lens and retina were ca. 3-fold higher in the diabetic rats with brain levels also now present. This increase may be due to either an accumulation of drug, or increased permeability of tissues and the BBB to drug in streptozotocin diabetic rats (Mooradian et al. (2005) Diabetes, 54:2977-82).

[4] = Chelation study by ESI-MS, Fe^3+ solution; type: binding; details: 10:1 metal:compound, 45 minutes of mixing
Description: (§1) The relative amount of ions bound by JHX-1-JHX-8 was determined by electrospray ionization mass spectrometry (ESI-MS) according to the method of Baron and Hering (Baron and Hering (1998) Spectrometry J. Environ. Qual., 27:844-850). In this method solutions containing Fe^2+, Fe^3+, Cu^1+, Cu^2+, Zn^2+, Ca^2+, Mg^2+ were mixed with compound in ratios of 10:1, 1:1, and 1:10. After 45 minutes of mixing, each solution was directly infused into the MS with constant ionization energy and the relative decreases of the parent peaks in these solutions were determined. […] FIG. 3 illustrates ion binding with increased Fe^+2 concentrations results in decreased compound parent peak heights by ESI-MS when compounds contain appropriate functional groups for metal ion chelation.

[5] = Chelation study by ESI-MS, Ca^2+ solution; type: binding; details: 10:1 metal:compound, 45 minutes of mixing
Description: as §1

[6] = Chelation study by ESI-MS, Zn^2+ solution; type: binding; details: 10:1 metal:compound, 45 minutes of mixing
Description: as §1

[7] = Chelation study by ESI-MS, Cu^1+ solution; type: binding; details: 10:1 metal:compound, 45 minutes of mixing
Description: as §1

[8] = Chelation study by ESI-MS, Cu^2+ solution; type: binding; details: 10:1 metal:compound, 45 minutes of mixing
Description: as §1

[9] = Chelation study by ESI-MS, Mg^2+ solution; type: binding; details: 10:1 metal:compound, 45 minutes of mixing
Description: as §1

[10] = Chelation study by ESI-MS, Fe^2+ solution; type: binding; details: 10:1 metal:compound, 45 minutes of mixing
Description: as §1

[11] = system: SRA-1 human lens epithelium cell line; test: MTS cell viability assay; type: cell-based; details: 1 mM compound; for protection against H2O2 induced loss of cell viability: 1.0 mM H2O2, 2 hours
Description: The SRA-1 human lens epithelium cell line (Ibaraki et al. (1998) Exp. Eye Res., 67:577-85) was used to evaluate the antioxidant activity of JHX-1-8. […] The cells were passaged when 80-90% confluent by treatment with trypsin-EDTA. The cells were plated at a density of 1×10^4 cells onto 96-well plates or 1×10^6 cells onto 100-mm dishes. ROS levels/effects in cells treated with JHX-1-8 were compared to similar cells treated with the water soluble Vitamin E derivative, Trolox (antioxidant control) or no drug (control). […] Cells were cultured in 96-well plates and exposed for 2 hours to media containing 1.0 mM H2O2 (FIG. 5A) or Fenton reagents (1.0 mM H2O2 and 1.0 mM Fe^2+, FIG. 5B) with/without 1 mM JHX-1-8 or Trolox. Viability was measured as the absorbance of MTS stain at 490 nm 1 hour after the addition of 20 μL of […] AQueous One Solution Cell Proliferation Assay to each well. The results were normalized to blank control (100%) since absorbance is directly proportional to the living cell population.

[12] = system: SRA-1 human lens epithelial cells; test: ROS staining (H2DCF-DA) in lens epithelial cells; type: cell-based; details: 24 hour incubation, H2DCF-DA stain; for ROS staining, ROS initiated by homocysteine: 10 mM homocysteine (ER stress); for ROS staining, ROS generated by Fenton reaction: 0.1 mM Fe^2+ and 0.1 mM hydrogen peroxide
Description: The SRA-1 human lens epithelium cell line (Ibaraki et al. (1998) Exp. Eye Res., 67:577-85) was used to evaluate the antioxidant activity of JHX-1-8. These cells were cultured in DMEM media containing 10% fetal bovine serum (FBS), glutamine, NaHCO3, penicillin, and streptomycin at 37° C. in humidified atmosphere of 5% CO2 and 95% air until subconfluent (2-4 days). The cells were passaged when 80-90% confluent by treatment with trypsin-EDTA. The cells were plated at a density of 1×10^4 cells onto 96-well plates or 1×10^6 cells onto 100-mm dishes. ROS levels/effects in cells treated with JHX-1-8 were compared to similar cells treated with the water soluble Vitamin E derivative, Trolox (antioxidant control) or no drug (control).
The compounds were initially screened for antioxidant activity in 24 hour cultured SRA-1 human lens epithelial cells. Reactive oxygen species (ROS) in these cells were generated through both the Fenton reaction in which 0.1 mM Fe^2+ and 0.1 mM hydrogen peroxide were added to the culture media, or by culturing the lens with 10 mM homocysteine which induces endoplasmic reticular (ER) stress that results in the unfolded protein response (UPR) that subsequently generates the ROS. ROS were visualized with 2′,7′-dichlorodihydrofluorescein diacetate (DCF) staining. More specifically, after 24 hours of incubation, all cells were washed 2× with PBS and then incubated at room temperature for 1 hour with 10 μM H2DCF-DA (Invitrogen) stain. Fluorescent ROS staining was analyzed by quantifying pixel intensities of images obtained by fluorescent microscopy. As illustrated below in FIGS. 4A and 4B, compounds with chelating groups only produced a dose-dependent reduction in Fenton Reaction generated ROS. […] Indeed, homocysteine activates ER stress which subsequently initiates ROS through an Unfolded Protein Response (UPR).

[13] = Chelation studies by ESI-MS, overall statement on ion binding; details: binding order Cu^1+=Cu^2+>Fe^2+=Fe^3+>Zn^2+; no binding with Ca^2+ or Mg^2+
Description: as §1

| SMILES | % Parent Peak Remaining at 10:1 Solution of Metal:Compound [4] [%] | % Parent Peak Remaining at 10:1 Solution of Metal:Compound [5] [%] | % Parent Peak Remaining at 10:1 Solution of Metal:Compound [6] [%] | % Parent Peak Remaining at 10:1 Solution of Metal:Compound [7] [%] | % Parent Peak Remaining at 10:1 Solution of Metal:Compound [8] [%] | % Parent Peak Remaining at 10:1 Solution of Metal:Compound [9] [%] | % Parent Peak Remaining at 10:1 Solution of Metal:Compound [10] [%] | reactivity toward alkyl radicals compared to α-tocopherol [1] [fold] | reactivity to peroxy radicals compared to α-tocopherol [2] | lens changes by slit lamp ([3]; 0.0125% in chow, 47 days) | lens sorbitol levels ([3]; end of study (47 days)) | protection against H2O2 induced loss of cell viability [11] | ROS staining, ROS initiated by homocysteine [12] | ROS staining, ROS generated by Fenton reaction [12] | ion binding [13] | increase of HLEC viability compared to controls ([11]; Fenton reagents (1.0 mM H2O2 and 1.0 mM Fe^2+), 2 hours) [%] |
| --- | --- | --- | --- | --- | --- | --- | --- | --- | --- | --- | --- | --- | --- | --- | --- | --- |
| Cc1nc(N(C)C)nc(C)c1O [2-N,N-Dimethyl-4,6-dimethyl-5-hydroxypyrimidine] |  |  |  |  |  |  |  | 5 | essentially equally reactive |  |  |  |  |  |  |  |
| O=C1NC(=O)C2(N1)c1cc(F)ccc1-c1ccc(F)cc12 [AL1576, reference compound] |  |  |  |  |  |  |  |  |  | No lens changes were observed | No sorbitol was present |  |  |  |  |  |
| Cc1c(C)c2c(c(C)c1O)CCC(C)(C(=O)O)O2 (stereo not shown) [Trolox, reference compound] |  |  |  |  |  |  |  |  |  |  |  |  |  |  |  | 15 |

Continued, in another order:

| % Parent Peak Remaining at 10:1 Solution of Metal:Compound [4] [%] | % Parent Peak Remaining at 10:1 Solution of Metal:Compound [5] [%] | % Parent Peak Remaining at 10:1 Solution of Metal:Compound [6] [%] | % Parent Peak Remaining at 10:1 Solution of Metal:Compound [7] [%] | % Parent Peak Remaining at 10:1 Solution of Metal:Compound [8] [%] | % Parent Peak Remaining at 10:1 Solution of Metal:Compound [9] [%] | % Parent Peak Remaining at 10:1 Solution of Metal:Compound [10] [%] | SMILES | reactivity toward alkyl radicals compared to α-tocopherol [1] [fold] | reactivity to peroxy radicals compared to α-tocopherol [2] | lens changes by slit lamp ([3]; 0.0125% in chow, 47 days) | lens sorbitol levels ([3]; end of study (47 days)) | protection against H2O2 induced loss of cell viability [11] | ROS staining, ROS initiated by homocysteine [12] | ROS staining, ROS generated by Fenton reaction [12] | ion binding [13] | increase of HLEC viability compared to controls ([11]; Fenton reagents (1.0 mM H2O2 and 1.0 mM Fe^2+), 2 hours) [%] |
| --- | --- | --- | --- | --- | --- | --- | --- | --- | --- | --- | --- | --- | --- | --- | --- | --- |
| 100.0 | 100.0 | 100.0 | 100.0 | 100.0 | 100.0 | 100.0 | CN(C)S(=O)(=O)N1CCN(c2ncccn2)CC1 [JHX-1, 1-N,N′-dimethylsulfamoyl-4-(2-pyrimidyl)piperazine] |  |  |  |  |  |  |  |  |  |
| 100.0 | 100.0 | 100.0 | 100.0 | 100.0 | 100.0 | 100.0 | CN(C)S(=O)(=O)N1CCN(c2ncc(O)cn2)CC1 [JHX-2, 1-N,N′-dimethylsulfamoyl-4-(5-hydroxy-2-pyrimidyl)piperazine] |  |  |  |  | protecting against H2O2 induced loss of cell viability | reduced ROS staining similar to that with Trolox |  |  |  |
| 10.0 | 100.0 | 15.3 | 3.6 | 4.4 | 100.0 | 8.1 | CN(C)S(=O)(=O)N1C(=O)CN(c2ncccn2)CC1=O [JHX-3, 1-N,N′-dimethylsulfamoyl-4-(2-pyrimidyl)piperazine-2,6-dione] |  |  |  |  |  |  | decreased staining; also recorded: protected against ROS | bind ions |  |
| 100.0 | 100.0 | 100.0 | 100.0 | 100.0 | 100.0 | 100.0 | COc1cc(OC)nc(N2CCN(S(=O)(=O)N(C)C)CC2)n1 [JHX-5, 1-N,N′-dimethylsulfamoyl-4-(4,6-dimethoxy-2-pyrimidyl)piperazine] |  |  |  |  |  |  |  |  |  |
| 100.0 | 100.0 | 100.0 | 100.0 | 100.0 | 100.0 | 100.0 | COc1nc(N2CCN(S(=O)(=O)N(C)C)CC2)nc(OC)c1O [JHX-6, 1-N,N′-dimethylsulfamoyl-4-(4,6-dimethoxy-5-hydroxy-2-pyrimidyl)piperazine] |  |  |  |  | protecting against H2O2 induced loss of cell viability | reduced ROS staining similar to that with Trolox |  |  |  |
| 7.6 | 100.0 | 13.8 | 4.1 | 3.4 | 100.0 | 7.3 | COc1cc(OC)nc(N2CC(=O)N(S(=O)(=O)N(C)C)C(=O)C2)n1 [JHX-7, 1-N,N′-dimethylsulfamoyl-4-(4,6-dimethoxy-2-pyrimidyl)piperazine-2,6-dione] |  |  |  |  |  |  | decreased staining; also recorded: protected against ROS | bind ions |  |
